{
  "source": "patent US10364277B2",
  "about": "“Diagnosis and treatment of autoimmune diseases” (NewSouth Innovations Pty Limited, priority 2013, dated 2019)",
  "molecules": {"B1": {"name": "Lumican: whole recombinant human lumican (protein, UniProt P51884 19-338, looked up)", "Lumican": "QYYDYDFPLSIYGQSSPNCAPECNCPESYPSAMYCDELKLKSVPMVPPGIKYLYLRNNQIDHIDEKAFENVTDLQWLILDHNLLENSKIKGRVFSKLKQLKKLHINHNNLTESVGPLPKSLEDLQLTHNKITKLGSFEGLVNLTFIHLQHNRLKEDAVSAAFKGLKSLEYLDLSFNQIARLPSGLPVSLLTLYLDNNKISNIPDEYFKRFNALQYLRLSHNELADSGIPGNSFNVSSLVELDLSYNKLKNIPTVNENLENYYLEVNQLEKFDIKSFCKILGPLSYSKIKHLRLDGNRISETSLPPDMYECLRVANEVTLN"}},
  "key": {"PBMC": {"tested_on": "PBMC", "test": "Ex vivo IFN-γ EliSpot assay", "conditions": "for IFN-γ response to individual peptide compared to the controls: one HLA B27 subject of 2 (B27004, B27007), p<0.001"}, "Rats": {"tested_on": "Rats", "test": "Induction of oral tolerance in rats", "format": "in vivo, rat", "conditions": "for affected joints / average score/animal / incidence: 4 rats"}, "HLAB*2705": {"biological_target": "HLAB*2705 (Homo sapiens, UniProt P01889, D138H/D201E/E176V/E204Q/G107R/H137Y/K202T/N104T/N87E/Q56L/Q94K/R106L/R155S/R180L/S101D/S121N/S48T/Y140D/Y33H/Y91C)", "test": "REVEAL MHC-peptide binding assay", "conditions": "for % Positive Control: REVEAL binding score relative to positive control peptide, pass threshold ≥45%"}, "Lewis rats": {"tested_on": "Lewis rats", "test": "Immunization of Lewis rats with peptide in CFA (uveitis/arthritis)", "format": "in vivo, rat", "design": "histol Average / Arthritis Total: scale not given here", "conditions": "for Arthritis Total / Arthritis day 25 / incidence / histol Average: 50 μg peptide/animal; for clin uveitis: 6 Lewis rats, 50 μg peptide/animal s.c. in CFA; for incidence: eyes with histological findings / eyes scored; for animals immunised that developed arthritis: groups of 6 animals, not HLA-B27 transgenics; for histol Average: histological uveitis score of eyes", "procedure": "Animals: Lewis rats, age 6 weeks,\nPeptides were emulsified (sonification) in CFA (50:50, CFA:Peptid) supplemented with M Tuberculosis H37RA (BD, Heidelberg, Germany) to a final concentration of 2.5 mg/ml\nPeptide is injected s.c. in both hindlegs, 50 μg peptide/200 μl emulsion, 100 μl/leg,\nGroup size: 6 animals, 3 groups\n7 days post immunization animals were examined daily (eyes and feet)\nEyes were embedded in tissue tec and frozen at −80 degree.\n8 μm cryo section were stained with hematoxilin and graded."}, "[1]": {"tested_on": "T cells of patients with AS", "conditions": "known from Kuon et al. 1997; cited from earlier work"}, "[2]": {"conditions": "PBS-fed 3 x, immunized with 100 μg peptide"}, "[3]": {"conditions": "fed 200 μg peptide 3 x, immunized with 100 μg of the same peptide"}},
  "note": "“Also recorded” adds a separate entry of the source. Marks after values point to notes of the source that are not given here. Ends that are not written are not given here.",
  "data": [
    {"molecule": "LQNNLIETI (Fragment of keratocan protein)", "values": [
      {"measurement": "IFN-γ response to individual peptide compared to the controls", "setting": "PBMC", "value": "significant increase in response"}
    ]},
    {"molecule": "QLEDIRLDG (A second opticin protein fragment)", "values": [
      {"measurement": "IFN-γ response to individual peptide compared to the controls", "setting": "PBMC", "value": "significant increase in response"}
    ]},
    {"molecule": "LQYLRLSHN", "values": [
      {"measurement": "IFN-γ response to individual peptide compared to the controls", "setting": "PBMC", "value": "significant increase in response"}
    ]},
    {"molecule": "ARKLLLDNL [Peptide P2]", "values": [
      {"measurement": "affected joints", "setting": "Rats; [2]", "value": 3},
      {"measurement": "average score/animal", "setting": "Rats; [2]", "value": 1.875},
      {"measurement": "incidence", "setting": "Rats; [2]", "value": "2/4"},
      {"measurement": "average score/animal", "setting": "Rats; [3]", "value": 3.25},
      {"measurement": "incidence", "setting": "Rats; [3]", "value": "1/4"},
      {"measurement": "histological score", "setting": "Rats; left eye of rat 1-3, PBS-fed, imm. P2D6", "value": "2-3"},
      {"measurement": "% Positive Control", "setting": "HLAB*2705", "value": 5.26, "unit": "%"},
      {"measurement": "Arthritis Total", "setting": "Lewis rats", "value": 8},
      {"measurement": "clin uveitis", "setting": "Lewis rats", "value": 0},
      {"measurement": "Arthritis day 25", "setting": "Lewis rats", "value": 8},
      {"measurement": "incidence", "setting": "Lewis rats", "value": "5/11*"},
      {"measurement": "animals immunised that developed arthritis", "setting": "Lewis rats", "value": "5/6"},
      {"measurement": "histol Average", "setting": "Lewis rats", "value": 0.181}
    ]},
    {"molecule": "8 (DRASFIKNL; Collagen peptide fragment) [Peptide 8]", "values": [
      {"measurement": "% Positive Control", "setting": "HLAB*2705", "value": 0.04, "unit": "%"},
      {"measurement": "stimulation of T cells of patients with AS", "setting": "[1]", "value": "stimulate T cells of patients with AS"}
    ]},
    {"molecule": "10 (ARGQPGVMG) [Peptide 10]", "values": [
      {"measurement": "% Positive Control", "setting": "HLAB*2705", "value": 1.06, "unit": "%"}
    ]},
    {"molecule": "NRFSVAYML [Peptide P3]", "values": [
      {"measurement": "affected joints", "setting": "Rats; [2]", "value": 10},
      {"measurement": "average score/animal", "setting": "Rats; [2]", "value": "2.75-3.00"},
      {"measurement": "incidence", "setting": "Rats; [2]", "value": "3/4"},
      {"measurement": "induction of oral tolerance", "setting": "Rats; compared with P2", "value": "induces oral tolerance more effectively than P2"},
      {"measurement": "affected joints", "setting": "Rats; [3]", "value": 0},
      {"measurement": "average score/animal", "setting": "Rats; [3]", "value": 0},
      {"measurement": "incidence", "setting": "Rats; [3]", "value": "0/4"},
      {"measurement": "development of arthritis or uveitis", "setting": "Rats; rats fed with P3 and immunized with P3", "value": "None of the rats fed with P3 and immunized with P3 developed arthritis or uveitis; also recorded: None of the animals who received P3 had evidence of arthritis or uveitis"},
      {"measurement": "% Positive Control", "setting": "HLAB*2705", "value": 0.00, "unit": "%"},
      {"measurement": "Arthritis Total", "setting": "Lewis rats", "value": 4},
      {"measurement": "clin uveitis", "setting": "Lewis rats", "value": 0},
      {"measurement": "Arthritis day 25", "setting": "Lewis rats", "value": 2},
      {"measurement": "incidence", "setting": "Lewis rats", "value": "2/12"},
      {"measurement": "histol Average", "setting": "Lewis rats", "value": 0.083}
    ]},
    {"molecule": "9 (SRHHAFCFR; Aggrecan peptide fragment) [Peptide 9]", "values": [
      {"measurement": "% Positive Control", "setting": "HLAB*2705", "value": 0.02, "unit": "%"},
      {"measurement": "stimulation of T cells of patients with AS", "setting": "[1]", "value": "stimulate T cells of patients with AS"}
    ]},
    {"molecule": "KRLAETLAL [compound 1, KRLAETLAL]", "values": [
      {"measurement": "% Positive Control", "setting": "HLAB*2705", "value": 105.51, "unit": "%"}
    ]},
    {"molecule": "KRFNALQYL [human lumican residues 226-234]", "values": [
      {"measurement": "% Positive Control", "setting": "HLAB*2705", "value": 0.24, "unit": "%"},
      {"measurement": "binding relative to the positive control peptides", "setting": "HLAB*2705; in vitro MHC-peptide binding assay, HLA-B2705", "value": "significant binding"},
      {"measurement": "Arthritis Total", "setting": "Lewis rats", "value": 3},
      {"measurement": "clin uveitis", "setting": "Lewis rats", "value": 0},
      {"measurement": "Arthritis day 25", "setting": "Lewis rats", "value": 0},
      {"measurement": "incidence", "setting": "Lewis rats", "value": "3/12"},
      {"measurement": "histol Average", "setting": "Lewis rats", "value": 0.125}
    ]},
    {"molecule": "B1", "values": [
      {"measurement": "patients demonstrating increased IFN-γ production", "setting": "PBMC; HLA B27 AU patients", "value": "8 of 10"},
      {"measurement": "Interferon gamma response, Patients (N = 10)", "setting": "PBMC; number of HLA B27 AU patients responding, PBMC, 24 hours", "value": 8},
      {"measurement": "Interferon gamma response, Controls (N-6)", "setting": "PBMC; number of healthy controls responding, PBMC, 24 hours", "value": 2},
      {"measurement": "IFN-γ response of HLA B27 AU patients vs average of healthy controls", "setting": "PBMC; ten patients vs controls n=6, one way ANOVA, Bonferroni, lumican 2.5 μg/mL", "value": "significant difference"},
      {"measurement": "animals immunised that developed arthritis", "setting": "Lewis rats", "value": "all developed arthritis"}
    ]}
  ]
}
